Several values for one entry are separate records, joined by “and”; a condition that tells them apart may be missing. Equal entries are not always repeated. Toxic doses and inconclusive results are not listed. Cut-off read from the data, not from the text of the source: active = T/C of 150% or more; inactive = T/C below 125%.
Test system: L1210 leukemia ip in BDF1 mice, survival T/C
Assay: NCI In Vivo Anticancer Drug Screen. Data for tumor model L1210 Leukemia (intraperitoneal) in B6D2F1 (BDF1) mice
Settings: endpoint: mean survival time, higher = longer survival
How it was run: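 Tumor cells were implanted, animals were treated, and survival was followed. The result divides the treated measurement by the vehicle-control measurement.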

[1] = dose: 75.0 mg/kg/injection, schedule: Q01DX001 (ip), vehicle: other
[2] = dose: 150.0 mg/kg/injection, schedule: Q01DX001 (ip), vehicle: other
[3] = dose: 100.0 mg/kg/injection, schedule: Q01DX009 (ip), vehicle: Klucel (hydroxypropylcellulose) (HPC)
[4] = dose: 100.0 mg/kg/injection, schedule: Q04DX003 (ip), vehicle: Klucel (hydroxypropylcellulose) (HPC)
[5] = dose: 200.0 mg/kg/injection, schedule: Q01DX009 (ip), vehicle: Klucel (hydroxypropylcellulose) (HPC)
[6] = dose: 200.0 mg/kg/injection, schedule: Q04DX003 (ip), vehicle: Klucel (hydroxypropylcellulose) (HPC)
[7] = dose: 100.0 mg/kg/injection, schedule: Q04DX003 (ip), vehicle: saline with Tween-80
[8] = dose: 200.0 mg/kg/injection, schedule: Q04DX003 (ip), vehicle: saline with Tween-80
[9] = dose: 400.0 mg/kg/injection, schedule: Q01DX009 (ip), vehicle: Klucel (hydroxypropylcellulose) (HPC)
[10] = dose: 400.0 mg/kg/injection, schedule: Q04DX003 (ip), vehicle: Klucel (hydroxypropylcellulose) (HPC)
[11] = dose: 400.0 mg/kg/injection, schedule: Q04DX003 (ip), vehicle: saline with Tween-80
[12] = dose: 100.0 mg/kg/injection, schedule: Q01DX009 (ip), vehicle: saline
[13] = dose: 200.0 mg/kg/injection, schedule: Q01DX009 (ip), vehicle: saline
[14] = dose: 400.0 mg/kg/injection, schedule: Q01DX009 (ip), vehicle: saline
[15] = dose: 100.0 mg/kg/injection, schedule: Q01DX009 (ip), vehicle: saline with Tween-80

Measured: T/C

COc1ccccc1/C=N\NC(=S)Nc1ccc(F)cc1
inactive: dose: 60.0 mg/kg/injection, schedule: Q01DX Z (oral), vehicle: methylcellulose (MC) 106 % of control | dose: 120.0 mg/kg/injection, schedule: Q01DX Z (oral), vehicle: methylcellulose (MC) 90 % of control | dose: 240.0 mg/kg/injection, schedule: Q01DX Z (ip), vehicle: methylcellulose (MC) 92 % of control | dose: 240.0 mg/kg/injection, schedule: Q01DX Z (oral), vehicle: methylcellulose (MC) 96 % of control | dose: 480.0 mg/kg/injection, schedule: Q01DX Z (ip), vehicle: methylcellulose (MC) 91 % of control | dose: 480.0 mg/kg/injection, schedule: Q01DX Z (oral), vehicle: methylcellulose (MC) 93 % of control

CC(COC(=O)c1ccc(N)cc1)NC1CCCCC1 (stereo not drawn)
inactive: [1] 96 % of control | [2] 102 % of control

CN1C(c2ccc(Cl)cc2)OCC1(C)C (stereo not drawn)
inactive: dose: 100.0 mg/kg/injection, schedule: Q04DX003 (ip), vehicle: saline sonified 90 % of control | dose: 200.0 mg/kg/injection, schedule: Q04DX003 (ip), vehicle: saline sonified 92 % of control

CC(C)=CCN(CC=C(C)C)CCC(O)(Cc1ccccc1)c1ccccc1 (stereo not drawn)
inactive: dose: 50.0 mg/kg/injection, schedule: Q01DX009 (ip), vehicle: Klucel (hydroxypropylcellulose) (HPC) 88 % of control | [3] 109 % of control | [4] 97 % of control | [5] 90 % of control | [6] 95 % of control

Fc1ccc(Cc2nnc(Cc3ccc(F)cc3)nn2)cc1
inactive: dose: 100.0 mg/kg/injection, schedule: Q04DX002 (ip), vehicle: Klucel (hydroxypropylcellulose) (HPC) 105 % of control | dose: 200.0 mg/kg/injection, schedule: Q04DX002 (ip), vehicle: Klucel (hydroxypropylcellulose) (HPC) 102 % of control

OC1CCCCC1Cc1ccccc1 (stereo not drawn)
inactive: dose: 100.0 mg/kg/injection, schedule: Q04DX003 (ip), vehicle: gum acacia 102 % of control | dose: 200.0 mg/kg/injection, schedule: Q04DX003 (ip), vehicle: gum acacia 96 % of control | dose: 400.0 mg/kg/injection, schedule: Q04DX003 (ip), vehicle: gum acacia 98 % of control

O=C(NC(CO)C(=O)OCc1ccccc1)OCc1ccccc1 (stereo not drawn)
inactive: [3] 104 % of control | [4] 104 % of control | [7] 98 % of control | [5] 102 % of control | [6] 101 % of control | [8] 95 % of control | [9] 102 % of control | [10] 90 % of control | [11] 90 % of control

CC(C)C(CN)(CCCCN1CCCC1)c1cccc2ccccc12 (stereo not drawn)
inactive: dose: 12.5 mg/kg/injection, schedule: Q04DX003 (ip), vehicle: saline 96 % of control | dose: 25.0 mg/kg/injection, schedule: Q04DX003 (ip), vehicle: saline 93 % of control | dose: 50.0 mg/kg/injection, schedule: Q04DX003 (ip), vehicle: saline 96 % of control

Cc1cc(C)c(NC(=O)c2cccc(C(=O)Nc3c(C)cc(C)cc3C)c2)c(C)c1
inactive: [3] 102 % of control | [4] 91 % of control | [5] 104 % of control | [6] 88 % of control | [9] 96 % of control | [10] 88 % of control

O=C(O)C(CCc1ccccc1)(CCc1ccccc1)C(=O)O
inactive: [12] 95 % of control | [13] 94 % of control | [14] 111 % of control

CCN1C(=O)CC(O)C1=O (stereo not drawn)
inactive: [12] 101 % of control | [13] 100 % of control | [14] 97 % of control

COC1(c2ccccc2)OC(Cc2ccccc2)=NC1(C)C (stereo not drawn)
inactive: [4] 94 % of control | [6] 94 % of control | [10] 94 % of control

NC(N)=N/N=C(/c1ccccc1)c1ccc(F)cc1
inactive: dose: 6.25 mg/kg/injection, schedule: Q01DX009 (ip), vehicle: carboxymethylcellulose (CMC) 95 % of control | dose: 12.5 mg/kg/injection, schedule: Q01DX009 (ip), vehicle: carboxymethylcellulose (CMC) 97 % of control | dose: 15.0 mg/kg/injection, schedule: Q01DX Z (ip), vehicle: saline 95 % of control | dose: 15.0 mg/kg/injection, schedule: Q01DX Z (oral), vehicle: saline 107 % of control | dose: 20.0 mg/kg/injection, schedule: Q01DX001 (ip), vehicle: other 107 % of control | dose: 20.0 mg/kg/injection, schedule: Q01DX009 (ip), vehicle: carboxymethylcellulose (CMC) 94 % of control | dose: 20.0 mg/kg/injection, schedule: Q01DX009 (ip), vehicle: other 103 % of control | dose: 25.0 mg/kg/injection, schedule: Q01DX009 (ip), vehicle: carboxymethylcellulose (CMC) 103 % of control | dose: 30.0 mg/kg/injection, schedule: Q01DX Z (ip), vehicle: saline 108 % of control | dose: 30.0 mg/kg/injection, schedule: Q01DX Z (oral), vehicle: saline 107 % of control | dose: 40.0 mg/kg/injection, schedule: Q01DX001 (ip), vehicle: other 110 % of control | dose: 40.0 mg/kg/injection, schedule: Q01DX009 (ip), vehicle: carboxymethylcellulose (CMC) 94 % of control | dose: 40.0 mg/kg/injection, schedule: Q01DX009 (ip), vehicle: other 90 % of control | dose: 50.0 mg/kg/injection, schedule: Q01DX009 (ip), vehicle: carboxymethylcellulose (CMC) 115 % of control | dose: 80.0 mg/kg/injection, schedule: Q01DX009 (ip), vehicle: carboxymethylcellulose (CMC) 118 % of control

O=C(O)C(CCC(C(=O)O)c1ccccc1)c1ccccc1 (stereo not drawn)
inactive: [1] 110 % of control | [2] 116 % of control | dose: 300.0 mg/kg/injection, schedule: Q01DX001 (ip), vehicle: other 95 % of control

OC1(CBr)CCCCC1
inactive: [7] 102 % of control | [8] 98 % of control | [11] 95 % of control

O=S1(=O)c2ccccc2-c2ncccc21
inactive: dose: 25.0 mg/kg/injection, schedule: Q01DX001 (ip), vehicle: saline with Tween-80 105 % of control | dose: 50.0 mg/kg/injection, schedule: Q01DX001 (ip), vehicle: saline with Tween-80 109 % of control | dose: 100.0 mg/kg/injection, schedule: Q01DX001 (ip), vehicle: saline with Tween-80 109 % of control

CCOC(OCC)OC(C)=O
inactive: [12] 107 % of control | dose: 100.0 mg/kg/injection, schedule: Q04DX003 (ip), vehicle: saline 110 % of control | [13] 98 % of control | dose: 200.0 mg/kg/injection, schedule: Q04DX003 (ip), vehicle: saline 97 % of control | [14] 90 % of control | dose: 400.0 mg/kg/injection, schedule: Q04DX003 (ip), vehicle: saline 103 % of control

COc1ccc(C2C3CCC(C3)C2N)cc1 (stereo not drawn)
inactive: dose: 5.0 mg/kg/injection, schedule: Q04DX003 (ip), vehicle: saline 100 % of control | dose: 10.0 mg/kg/injection, schedule: Q01DX009 (ip), vehicle: saline with Tween-80 93 % of control | dose: 10.0 mg/kg/injection, schedule: Q04DX003 (ip), vehicle: saline 100 % of control and 97 % of control | dose: 20.0 mg/kg/injection, schedule: Q01DX009 (ip), vehicle: saline with Tween-80 91 % of control | dose: 20.0 mg/kg/injection, schedule: Q04DX003 (ip), vehicle: saline 97 % of control | dose: 25.0 mg/kg/injection, schedule: Q01DX009 (ip), vehicle: saline with Tween-80 90 % of control | dose: 40.0 mg/kg/injection, schedule: Q04DX003 (ip), vehicle: saline 96 % of control | dose: 50.0 mg/kg/injection, schedule: Q01DX009 (ip), vehicle: saline with Tween-80 95 % of control | [15] 88 % of control | [7] 100 % of control

Cc1cccc(=O)n1Cc1ccccc1
inactive: dose: 100.0 mg/kg/injection, schedule: Q01DX001 (ip), vehicle: saline 104 % of control | [15] 97 % of control | dose: 200.0 mg/kg/injection, schedule: Q01DX001 (ip), vehicle: saline 98 % of control | dose: 200.0 mg/kg/injection, schedule: Q01DX009 (ip), vehicle: saline with Tween-80 91 % of control | dose: 400.0 mg/kg/injection, schedule: Q01DX001 (ip), vehicle: saline 105 % of control | dose: 400.0 mg/kg/injection, schedule: Q01DX009 (ip), vehicle: saline with Tween-80 88 % of control
